Data: US20260294905A1, “USE OF PLURALITY OF COMPOUNDS IN PREPARATION OF DRUG FOR TREATING MYELOPROLIFERATIVE NEOPLASMS” (THE SECOND XIANGYA HOSPITAL OF CENTRAL SOUTH UNIVERSITY, priority 2022, published 2026)
Where “and” joins values, the source holds several entries; their conditions need not be identical. Identical values can stand only once. Entries after “also recorded” stand apart in the source; their conditions may differ.

How the values were obtained:
[1] = tested on: preclinical model including melanoma; conditions: cited from earlier work
[2] = tested on: HEL cells (human erythroleukemia cell line); test: Annexin V-PI staining and flow cytometry, apoptosis of HEL cells, 24 h; type: cell-based; conditions: for promotion of apoptosis of HEL cells (in words): 0.1-10 μM
Procedure: • 1. the cell lines and inhibitors were the same as those in Example 1. • 2. detection of cell apoptosis
(§1) To detect the apoptosis-promoting effect of the inhibitors, HEL naïve cell strains were treated with Ruxolitinib and the compounds for 24 hours respectively (with concentrations of: 0, 0.1, 0.5, 1 μM or 0, 0.1, 0.3, 1, 3, 10 μM), and added with DMSO to make up to the same amount. 3 parallel replicate groups were set up, and cell apoptosis was detected by Annexin V and PI staining followed by flow cytometry.
(§2) A calculation formula of cell apoptosis rate was: cell apoptosis rate=the ratio of early apoptotic cells (Annexin V^+/PI^−)+the ratio of late apoptotic cells and necrotic cells (Annexin V^+/PI^+).

[3] = tested on: HEL^RE cells (Ruxolitinib-resistant HEL); test: Annexin V-PI staining and flow cytometry, apoptosis of HEL^RE cells; type: cell-based, human; conditions: for average apoptosis rate of HEL-RE cells: 24 h; for promotion of apoptosis of HEL^RE cells (in words): 0.1-10 μM
Procedure: as §1, §2
In order to detect the effects of compounds on the abilities of drug-resistant myeloproliferative neoplasm cells, the method was to treat HEL^RE with increasing concentrations of Ruxolitinib and the compounds, and to detect cell apoptosis by Annexin V and PI staining followed by flow cytometry.

[4] = tested on: HEL^RE cells (Ruxolitinib-resistant HEL); test: CellTiter-Lumi luminescence proliferation of Ruxolitinib-resistant HEL^RE cells, 48 h; type: cell-based, human; conditions: HEL^RE cells; for inhibition of proliferation of HEL^RE cells (in words): 0.1-10 μM; for activity at 0.1 µM / activity at 0.3 µM / activity at 1 µM / activity at 3 µM / activity at 10 µM: Homo sapiens, 48 h, vs DMSO control, read-out: average proliferation rate of HEL^RE cells
Excerpt: (§3) HELs (Human erythroleukemia cell lines) and Ruxolitinib-resistant HEL cells were both cultured in a RPMI medium (Gibco) containing 20% heat-inactivated fetal bovine serum (Gibco) and 1% penicillin/streptomycin.
A Ruxolitinib-resistant HEL model, i.e., a HEL^RE model, was constructed by starting the addition of Ruxolitinib at a concentration lower than the IC50 of naïve cells and slowly incrementing the concentration to a high concentration, and preventing the cells from being killed. Our starting concentration was 0.1 μM. The drug was added upon occurrence of cell proliferation. The drug addition gradient was an increment at a multiple of 1.25, and the final concentration was 2.0 μM. Stable drug-resistant cells were obtained after 4-6 weeks.
(§4) Ruxolitinib and other compounds were all purchased from Selleck, dissolved in DMSO with a stock solution concentration of 10 mM, and cryopreserved at −80° C. The working solution was diluted to a specified multiple using a RPMI medium and then used for treating cells. Ruxolitinib was specifically ruxolitinib phosphate.
(§5) To detect the antiproliferative effect of the inhibitor, the aforementioned cell lines were cultured at 3,000 cells/100 μL of the system per well, added with increasing concentrations of Ruxolitinib (concentration gradients of HEL cells: 0, 0.1, 1, 2.5, 5 μM; or 0, 0.1, 0.3, 1, 3, 10 μM), and added with DMSO to make up to the same amount. 4 parallel replicate groups were set up, and 3 blank wells (wells containing culture media without cells) were set up.
(§6) A calculation formula of the cell proliferation rate was: cell proliferation rate=(Luminescence value of the group added with the drug-average Luminescence value of the blank wells)/(Luminescence value of the DMSO control group-average Luminescence value of the blank wells)×100%.
A method for evaluating whether the model was successfully constructed was to compare the IC50s of resistant cells and naïve cells.
(§7) In order to detect the effects of five compounds on the proliferation abilities of drug-resistant myeloproliferative neoplasm cells, the method was to treat HEL^RE with increasing concentrations of Ruxolitinib and the five compounds respectively, and to detect the proliferation of the cells by a CellTiter-Lumi™ luminescence method.

[5] = orally once a week, RP2D 420 mg/m^2 (not exceeding 600 mg); cited from earlier work
[6] = tested on: HEL cells (human erythroleukemia cell line); test: CellTiter-Lumi luminescence proliferation of naive HEL cells, 48 h; type: cell-based; conditions: for inhibition of proliferation of HEL cells (in words): 0.1-10 μM; for activity at 0.1 µM / activity at 0.3 µM / activity at 1 µM / activity at 3 µM / activity at 10 µM: Homo sapiens, 48 h, vs DMSO control, read-out: average proliferation rate of HEL cells
Procedure: as §3, §4, §5, §6
as §7, with “the” for “five”, “the HEL naïve cell lines” for “HEL^RE”, “the” for “the five”

neuroblastoma cells = conditions: cited from earlier work
[7] = tested on: neuroblastoma mouse model; conditions: cited from earlier work
[8] = tested on: non-small cell lung cancer; conditions: non-small cell lung cancer patients, RP2D 275 mg per day; cited from earlier work
[9] = tested on: progressive or metastatic solid tumors; conditions: RP2D 2.7 mg, cited from earlier work

| SMILES | average apoptosis rate of HEL cells ([2]; 0.1 μM) | average apoptosis rate of HEL cells ([2]; 0.3 μM) | average apoptosis rate of HEL cells ([2]; 1 μM) | average apoptosis rate of HEL cells ([2]; 3 μM) | average apoptosis rate of HEL cells ([2]; 10 μM) | promotion of apoptosis of HEL cells (in words) [2] | average apoptosis rate of HEL-RE cells ([3]; 0.1 μM) | average apoptosis rate of HEL-RE cells ([3]; 0.3 μM) | average apoptosis rate of HEL-RE cells ([3]; 1 μM) | average apoptosis rate of HEL-RE cells ([3]; 3 μM) | average apoptosis rate of HEL-RE cells ([3]; 10 μM) | promotion of apoptosis of HEL^RE cells (in words) [3] | inhibition of proliferation of HEL^RE cells (in words) [4] | activity at 0.1 µM [4] [%] | activity at 0.3 µM [4] [%] | activity at 1 µM [4] [%] | activity at 3 µM [4] [%] | activity at 10 µM [4] [%] | inhibition of proliferation of HEL cells (in words) [6] | activity at 0.1 µM [6] [%] | further results |
| --- | --- | --- | --- | --- | --- | --- | --- | --- | --- | --- | --- | --- | --- | --- | --- | --- | --- | --- | --- | --- | --- |
| C[C@@H](NC(=O)c1ncnc(N)c1Cl)c1ncc(C(=O)Nc2cc(C(F)(F)F)c(Cl)cn2)s1 [MLN2480] | 4.61±2.768% and 4.61% | 3.85±0.101% and 3.85% | 5.53±1.22% and 5.53% | 10.04±2.663% and 10.04% | 8.8±1.063% and 8.8% | could not promote the apoptosis of myeloproliferative neoplasm cells | 6.54±0.560% and 6.54% | 7.80±0.900% and 7.80% | 10.9±0.390% and 10.9% | 15.5±0.580% and 15.5% | 13.8±0.775% and 13.8% | could promote apoptosis of Ruxolitinib-resistant myeloproliferative neoplasm cells, and this effect was increased with the increase of the drug concentration; also recorded: can promote the apoptosis of the HEL^RE cells | could inhibit the proliferation of drug-resistant myeloproliferative neoplasm cells, and this effect was increased with the increase of the drug concentration | 103 ± 8.58 | 75.1 ± 3.54 | 46.5 ± 9.45 | 18.9 ± 4.22 | 10.3 ± 0.49 | could not inhibit the proliferation of the HEL cells | 98.5 ± 2.62 | anti-tumor activity [1]: good anti-tumor activity; overall effectiveness among the compounds ([4]; proliferation and apoptosis taken together): more effective; safety [5]: good safety and low toxic and side effects; activity at 0.3 µM [6]: 97.9 ± 3.55%; activity at 1 µM [6]: 97.3 ± 0.78%; activity at 3 µM [6]: 98.3 ± 0.65%; activity at 10 µM [6]: 97.6 ± 3.47% |
| COc1cc2ncnc(Oc3cccc(NC(=O)Nc4cc(C(C)(C)C(F)(F)F)on4)c3)c2cc1OC [Agerafenib] | 4.41±0.630% and 4.41% | 4.98±1.09% and 4.98% | 3.42±0.140% and 3.42% | 5.27% | 5.43±0.720% and 5.43% | could not promote apoptosis of the HEL cells | 7.05±0.920% and 7.05% | 5.33±0.430% and 5.33% | 5.11±0.210% and 5.11% | 7.37±0.220% and 7.37% | 8.22±0.390% and 8.22% | could not promote apoptosis of the HEL^RE cells | could inhibit the proliferation of the HEL^RE cells, and this effect was increased with the increase of the drug concentration | 4.26 ± 0.46 | 2.77 ± 0.43 | 2.75 ± 0.94 | 2.21 ± 0.04 | 1.86 ± 0.23 | can successfully inhibit the proliferation of the HEL cells; also recorded: could inhibit the proliferation of the HEL cells, and this effect was increased with the increase of the drug concentration | 90.1 ± 3.01 | proliferation and colony formation of neuroblastoma cells (neuroblastoma cells; in vitro): able to inhibit the proliferation and colony formation of neuroblastoma cells in vitro; combination with traditional chemotherapy drugs (neuroblastoma cells; with traditional chemotherapy drugs): had a synergistic effect with traditional chemotherapy drugs; tumor growth and survival [7]: able to inhibit tumor growth of and prolong the survival of mice significantly; activity at 0.3 µM [6]: 93.8 ± 12.4%; activity at 1 µM [6]: 83.2 ± 4.45%; activity at 3 µM [6]: 70.3 ± 3.47%; activity at 10 µM [6]: 40.1 ± 8.26%; anti-tumor activity [8]: good anti-tumor activity |
| CNS(=O)(=O)Nc1nccc(Cc2c(C)c3ccc(Oc4ncccn4)cc3oc2=O)c1F [RO5126766] | 6.00±0.290% and 6.00% | 6.96±1.16% and 6.96% | 6.11±0.640% and 6.11% | 8.32±2.69% and 8.32% | 6.73±1.20% and 6.73% | could not promote apoptosis of the HEL cells | 6.25±0.920% and 6.25% | 5.88±1.25% and 5.88% | 7.32±1.74% and 7.32% | 4.71±0.350% and 4.71% | 5.42±0.830% and 5.42% | could not promote apoptosis of the HEL^RE cells | could inhibit the proliferation of the HEL^RE cells, and this effect increased with increase in the drug concentration | 48.1 ± 3.37 | 41.4 ± 3.16 | 35.2 ± 2.89 | 31.5 ± 1.9 | 27.7 ± 2.34 | can successfully inhibit the proliferation of the HEL cells; also recorded: could inhibit the proliferation of the HEL cells, and this effect increased with increase in the drug concentration | 85.8 ± 2.75 | activity at 0.3 µM [6]: 89 ± 13.5%; activity at 1 µM [6]: 83.4 ± 3.31%; activity at 3 µM [6]: 61.6 ± 3.79%; activity at 10 µM [6]: 47.1 ± 5.47%; anti-tumor activity ([9]; 4 consecutive days a week for 4 weeks): good anti-tumor activity; side effects [9]: tolerable side effects |
